Test results: the supplement of paper PMC13380429

Assays:
Conditions in all cases: 72 h
[1] = tested on: Vero E6; test: drug sensitivity score (DSS) for viability; higher = more toxic; extreme values may be limits of the assay
[2] = tested on: Caco-2; test: as above
[3] = tested on: HepG2; test: as above
[4] = tested on: Calu-3; test: as above
[5] = tested on: U2OS; test: as above
[6] = tested on: Vero E6; test: relative viability EC50 (midpoint between 100% and the lowest measured viability); higher = less toxic
[7] = tested on: Caco-2; test: as above
[8] = tested on: HepG2; test: as above
[9] = tested on: Calu-3; test: as above
[10] = tested on: U2OS; test: as above
[11] = tested on: Vero E6; test: cell viability relative to DMSO; higher = less toxic
[12] = tested on: Caco-2; test: as above
[13] = tested on: HepG2; test: as above
[14] = tested on: Calu-3; test: as above
[15] = tested on: U2OS; test: as above

SMILES | drug sensitivity score [1] | drug sensitivity score [2] | drug sensitivity score [3] | drug sensitivity score [4] | drug sensitivity score [5] | relative viability EC50 [6] | relative viability EC50 [7] | relative viability EC50 [8] | relative viability EC50 [9] | relative viability EC50 [10] | cell viability ([11]; 1 nM) | cell viability ([11]; 10 nM) | cell viability ([11]; 100 nM) | cell viability ([11]; 1000 nM) | cell viability ([11]; 10000 nM) | cell viability ([12]; 1 nM) | cell viability ([12]; 10 nM) | cell viability ([12]; 100 nM) | cell viability ([12]; 1000 nM) | cell viability ([12]; 10000 nM) | cell viability ([13]; 1 nM) | cell viability ([13]; 10 nM) | cell viability ([13]; 100 nM) | cell viability ([13]; 1000 nM) | cell viability ([13]; 10000 nM) | cell viability ([14]; 1 nM) | cell viability ([14]; 10 nM) | cell viability ([14]; 100 nM) | cell viability ([14]; 1000 nM) | cell viability ([14]; 10000 nM) | cell viability ([15]; 1 nM) | cell viability ([15]; 10 nM) | cell viability ([15]; 100 nM) | cell viability ([15]; 1000 nM) | cell viability ([15]; 10000 nM)
CC(=O)Nc1nnc(S(N)(=O)=O)s1 [acetazolamide] | 0 | 0 | 0 | 0 | 0 | > 10 µM | > 10 µM | > 10 µM | > 10 µM | > 10 µM | 102% | 101% | 97.9% | 89.9% | 99.9% | 97.5% | 97.7% | 95.2% | 96.6% | 92.4% | 105% | 103% | 105% | 105% | 98% | 103% | 104% | 97.5% | 99.2% | 94.3% | 103% | 101% | 95.7% | 104% | 97.2%
Nc1[nH]cnc2ncnc1-2 [adenine] | 0 | 0 | 0 | 0 | 0 | > 10 µM | > 10 µM | > 10 µM | > 10 µM | > 10 µM | 104% | 103% | 101% | 91.7% | 98.2% | 91.8% | 95.9% | 104% | 88.5% | 114% | 77.5% | 98.7% | 92.8% | 92.5% | 93.2% | 91.3% | 93.3% | 112% | 108% | 90.7% | 93.8% | 103% | 98.4% | 99.5% | 110%
COc1ccc2cccc(CCNC(C)=O)c2c1 [agomelatine] | 0 | 0 | 0 | 0 | 0 | > 10 µM | > 10 µM | > 10 µM | > 10 µM | > 10 µM | 98% | 103% | 92.5% | 106% | 96.5% | 102% | 104% | 104% | 96.8% | 98% | 97.7% | 104% | 97.8% | 101% | 103% | 105% | 106% | 103% | 88.4% | 106% | 105% | 99% | 105% | 98.8% | 99.8%
CCCCC[C@H](O)/C=C/[C@H]1[C@H](O)CC(=O)[C@@H]1CCCCCCC(=O)O [alprostadil] | 0 | 0 | 0 | 0 | 0 | > 10 µM | > 10 µM | > 10 µM | > 10 µM | > 10 µM | 101% | 101% | 98.7% | 101% | 96.1% | 96.8% | 99% | 96.7% | 98.6% | 97.8% | 91.4% | 101% | 98.6% | 99.4% | 90.5% | 99% | 105% | 88.2% | 98.7% | 98.1% | 104% | 102% | 100% | 96.7% | 98.7%
CCNC(=O)N1CCN(CCCC(c2ccc(F)cc2)c2ccc(F)cc2)CC1 [amperozide] | 0 | 1 | 0 | 0 | 0 | > 10 µM | > 10 µM | > 10 µM | > 10 µM | > 10 µM | 98.7% | 98.6% | 100% | 99.2% | 94.1% | 96.5% | 96.6% | 85.6% | 94.1% | 81.4% | 98.5% | 102% | 91.9% | 103% | 93.7% | 97.6% | 103% | 95.7% | 106% | 94.4% | 97.5% | 103% | 94.4% | 100% | 95.3%
C[C@]12CCC(=O)C[C@@H]1CC[C@@H]1[C@@H]2CC[C@]2(C)C=CC[C@@H]12 [androstenone] | 0 | 0 | 0 | 0.1 | 0 | > 10 µM | > 10 µM | > 10 µM | > 10 µM | > 10 µM | 96.8% | 97.1% | 97.4% | 93.4% | 102% | 86.6% | 104% | 93.9% | 97.2% | 102% | 100% | 99.4% | 92.4% | 89.8% | 100% | 90.7% | 91.1% | 99.8% | 105% | 80.2% | 94.5% | 99.3% | 92.6% | 99% | 101%
CCCn1c(=O)c2[nH]cnc2n(-c2ccc(Cl)cc2)c1=O [arofylline] | 0 | 0 | 0 | 0 | 0 | > 10 µM | > 10 µM | > 10 µM | > 10 µM | > 10 µM | 108% | 108% | 101% | 98.3% | 96% | 87.3% | 97.6% | 94.4% | 87.9% | 95.5% | 104% | 102% | 99.1% | 100% | 101% | 97.7% | 95.4% | 103% | 96.8% | 92.2% | 103% | 99.1% | 102% | 96.8% | 98.9%
CN1CCN(CCCCN2C(=O)CN(/N=C/c3ccc(-c4ccc(Cl)cc4)o3)C2=O)CC1 [azimilide] | 0 | 0 | 0.1 | 0 | 0 | > 10 µM | > 10 µM | > 10 µM | > 10 µM | > 10 µM | 101% | 98.7% | 100% | 96.9% | 98.1% | 97.4% | 102% | 94.4% | 98.7% | 94.5% | 99.8% | 106% | 101% | 103% | 85.3% | 86.7% | 96.6% | 91% | 106% | 92.1% | 103% | 97.1% | 99.8% | 98.2% | 98.5%
Cn1c(COc2ccc(CC3SC(=O)NC3=O)cc2)nc2ccccc2c1=O (stereo not given) [balaglitazone] | 0 | 0.1 | 0 | 0.2 | 0 | > 10 µM | > 10 µM | > 10 µM | > 10 µM | > 10 µM | 98.2% | 94.8% | 88.6% | 93.4% | 101% | 91.7% | 106% | 90.7% | 96.4% | 85.3% | 88.5% | 104% | 85.7% | 100% | 99.2% | 95% | 95% | 103% | 103% | 84.3% | 96.4% | 95% | 97.3% | 91.8% | 92%
CCc1oc2ccccc2c1C(=O)c1cc(Br)c(O)c(Br)c1 [benzbromarone] | 0 | 1.7 | 0 | 0 | 0 | > 10 µM | > 10 µM | > 10 µM | > 10 µM | > 10 µM | 103% | 108% | 104% | 105% | 99.8% | 101% | 93.5% | 105% | 83.1% | 89.9% | 109% | 101% | 96.4% | 102% | 102% | 104% | 90.5% | 105% | 99.4% | 107% | 99.9% | 94.8% | 102% | 102% | 105%
C[N+]1(C)CCc2cc3c(cc2[C@H]1[C@@H]1OC(=O)c2c1ccc1c2OCO1)OCO3 [bicuculline-methochloride-(-)] | 0 | 2.5 | 0 | 0 | 0 | > 10 µM | > 10 µM | > 10 µM | > 10 µM | > 10 µM | 98.6% | 97% | 99.2% | 103% | 100% | 101% | 118% | 98% | 81.9% | 97.3% | 101% | 98.7% | 93.9% | 92.8% | 108% | 89% | 104% | 85% | 88% | 110% | 95.1% | 99.9% | 99.2% | 98.9% | 100%
CC(C)NCC(O)COc1ccc(COCCOC(C)C)cc1 (stereo not given) [bisoprolol] | 0 | 0 | 0 | 0 | 0 | > 10 µM | > 10 µM | > 10 µM | > 10 µM | > 10 µM | 92% | 98.3% | 93.3% | 104% | 107% | 91.3% | 95.8% | 103% | 100% | 99.2% | 104% | 98.9% | 91.2% | 103% | 90.6% | 95.5% | 103% | 108% | 97.8% | 108% | 93.6% | 94% | 101% | 95% | 103%
COc1cc(OC)c(C(=O)CCCN2CCCC2)c(OC)c1 [buflomedil] | 0 | 0 | 0 | 0 | 0 | > 10 µM | > 10 µM | > 10 µM | > 10 µM | > 10 µM | 95.7% | 99% | 94.1% | 97.5% | 108% | 101% | 103% | 96.2% | 96% | 106% | 90.5% | 97.2% | 97.3% | 94.4% | 99% | 87.5% | 86.3% | 90.2% | 88.6% | 101% | 104% | 99.3% | 102% | 98.8% | 108%
CCCCNC(=O)[C@@H]1Cc2ccccc2N1C(=O)[C@@H](N)CC [butabindide] | 0 | 0 | 0 | 0 | 0 | > 10 µM | > 10 µM | > 10 µM | > 10 µM | > 10 µM | 98.7% | 88.4% | 98.9% | 91.7% | 101% | 89.3% | 99.2% | 86.1% | 103% | 108% | 106% | 97.2% | 109% | 108% | 106% | 95.2% | 99.7% | 97.1% | 97.1% | 128% | 95.9% | 98.9% | 95.7% | 106% | 106%
